≈ marks a conversion by molar mass, not a printed value. Calls of active or inactive are those of the source. The calls are words filed in the database; no cut-off is given here. Non-standard residues stand in square brackets, D forms with d. Residues, ends and D or L forms follow the SMILES beside them. ξ: configuration not given here. ξY = NC(Cc1ccc(O)cc1)C(=O)O; ξR = N=C(N)NCCCC(N)C(=O)O; ξD = NC(CC(=O)O)C(=O)O; ξN = NC(=O)CC(N)C(=O)O; Nleu = CC(C)CNCC(=O)O; ξI = CCC(C)C(N)C(=O)O; Nlys = NCCCCNCC(=O)O; ξK = NCCCCC(N)C(=O)O; ξV = CC(C)C(N)C(=O)O; ξP = O=C(O)C1CCCN1
Tests used:
[1] = test system: Klebsiella pneumoniae; test: Bacteriostatic activity against Klebsiella pneumoniae assessed as membrane perturbation at 8 times MIC in full muller hinton medium by transmission electron microscopic analysis; assay type: functional, organism-based
[2] = test system: Escherichia coli; test: Bacteriostatic activity against Escherichia coli assessed as detachment of inner membrane from outer membrane by measuring a large void at 8 times MIC in full muller hinton medium by transmission electron microscopic analysis; assay type: functional, organism-based
[3] = test system: Escherichia coli; test: Bacteriostatic activity against Escherichia coli assessed as small intracellular vesicles at 8 times MIC in full muller hinton medium by transmission electron microscopic analysis; assay type: functional, organism-based
[4] = test system: Klebsiella pneumoniae; test: Bacteriostatic activity against Klebsiella pneumoniae assessed as small intracellular vesicles at 8 times MIC in full muller hinton medium by transmission electron microscopic analysis; assay type: functional, organism-based
[5] = test system: Klebsiella pneumoniae; test: Bacteriostatic activity against Klebsiella pneumoniae assessed as detachment of inner membrane from outer membrane by measuring a large void at 8 times MIC in full muller hinton medium by transmission electron microscopic analysis; assay type: functional, organism-based
[6] = test system: Escherichia coli; test: Bacteriostatic activity against Escherichia coli at 8 times MIC in full muller hinton medium by Time-kill assay; assay type: functional, organism-based
[7] = test system: Escherichia coli; test: Bacteriostatic activity against Escherichia coli assessed as membrane perturbation at 8 times MIC in full muller hinton medium by transmission electron microscopic analysis; assay type: functional, organism-based
[8] = test system: Klebsiella pneumoniae; test: Bacteriostatic activity against Klebsiella pneumoniae at 8 times MIC in full muller hinton medium by Time-kill assay; assay type: functional, organism-based
[9] = test system: Klebsiella pneumoniae; test: Antimicrobial activity against Klebsiella pneumoniae NCTC 418 incubated for 16 to 20 hrs in full muller hinton medium by broth microdilution method; assay type: functional; conditions: time 16-20 hrs
[10] = test system: Acinetobacter baumannii; test: Antimicrobial activity against Acinetobacter baumannii ATCC 19606 incubated for 16 to 20 hrs in full muller hinton medium by broth microdilution method; assay type: functional; conditions: time 16-20 hrs
[11] = test system: Pseudomonas aeruginosa; test: Antibacterial activity against multidrug-resistant Pseudomonas aeruginosa clinical isolate ZEM-1A incubated for 16 to 20 hrs in full muller hinton medium by broth microdilution method; assay type: functional; conditions: time 16-20 hrs
[12] = test system: Klebsiella pneumoniae; test: Antimicrobial activity against Klebsiella pneumoniae NCTC 418 incubated for 16 to 20 hrs in 12.5 % muller hinton medium by broth microdilution method; assay type: functional; conditions: time 16-20 hrs
[13] = test system: Pseudomonas aeruginosa; test: Antibacterial activity against multidrug-resistant Pseudomonas aeruginosa PA14 2P4 harboring pmrB mutant incubated for 16 to 20 hrs in full muller hinton medium by broth microdilution method; assay type: functional; conditions: time 16-20 hrs
[14] = test system: Klebsiella pneumoniae; test: Antibacterial activity against multidrug-resistant Klebsiella pneumoniae clinical isolate OXA-48 incubated for 16 to 20 hrs in full muller hinton medium by broth microdilution method; assay type: functional; conditions: time 16-20 hrs
[15] = test system: Klebsiella pneumoniae; test: Antibacterial activity against multidrug-resistant Klebsiella pneumoniae clinical isolate OXA-48 incubated for 16 to 20 hrs in 12.5 % muller hinton medium by broth microdilution method; assay type: functional; conditions: time 16-20 hrs
[16] = test system: Escherichia coli; test: Antimicrobial activity against Escherichia coli W3110 incubated for 16 to 20 hrs in 12.5 % muller hinton medium by broth microdilution method; assay type: functional; conditions: time 16-20 hrs
[17] = test system: Pseudomonas aeruginosa; test: Antibacterial activity against multidrug-resistant Pseudomonas aeruginosa PA14 4.18 harboring pmrB mutant incubated for 16 to 20 hrs in full muller hinton medium by broth microdilution method; assay type: functional; conditions: time 16-20 hrs
[18] = test system: Pseudomonas aeruginosa; test: Antibacterial activity against multidrug-resistant Pseudomonas aeruginosa PA14 incubated for 16 to 20 hrs in full muller hinton medium by broth microdilution method; assay type: functional; conditions: time 16-20 hrs
[19] = test system: Staphylococcus aureus; test: Antimicrobial activity against methicillin-resistant Staphylococcus aureus COL incubated for 16 to 20 hrs in full muller hinton medium by broth microdilution method; assay type: functional; conditions: time 16-20 hrs
[20] = test system: Pseudomonas aeruginosa; test: Antibacterial activity against multidrug-resistant Pseudomonas aeruginosa clinical isolate ZEM9A incubated for 16 to 20 hrs in full muller hinton medium by broth microdilution method; assay type: functional; conditions: time 16-20 hrs
[21] = test system: Pseudomonas aeruginosa; test: Antibacterial activity against multidrug-resistant Pseudomonas aeruginosa PA14 4.13 harboring phoQ mutant incubated for 16 to 20 hrs in full muller hinton medium by broth microdilution method; assay type: functional; conditions: time 16-20 hrs
[22] = test system: Enterobacter cloacae; test: Antibacterial activity against multidrug-resistant Enterobacter cloacae incubated for 16 to 20 hrs in full muller hinton medium by broth microdilution method; assay type: functional; conditions: time 16-20 hrs
[23] = test system: rRNA; test: Binding affinity to [gamma32 P-ATP] labeled Escherichia coli MG1655 23S ribosomal RNA (5-CCCTTGGGACCTACTTC-3') at U2506 position assessed as increase in band intensity at 1 uM incubated for 2.5 hrs in full muller hinton medium by CMCT based gel electrophoresis; assay type: nucleic-acid assay
[24] = Hemolytic activity in human RBC incubated for 4 hrs; assay type: toxicity, cell-based; conditions: erythrocyte
[25] = test system: Staphylococcus aureus; test: Antimicrobial activity against methicillin-resistant Staphylococcus aureus COL incubated for 16 to 20 hrs in 12.5 % muller hinton medium by broth microdilution method; assay type: functional; conditions: time 16-20 hrs
[26] = test system: Escherichia coli; test: Antimicrobial activity against Escherichia coli W3110 incubated for 16 to 20 hrs in full muller hinton medium by broth microdilution method; assay type: functional; conditions: time 16-20 hrs
[27] = test system: Pseudomonas aeruginosa; test: Antimicrobial activity against Pseudomonas aeruginosa PAO1 incubated for 16 to 20 hrs in full muller hinton medium by broth microdilution method; assay type: functional; conditions: time 16-20 hrs
[28] = test system: Acinetobacter baumannii; test: Antimicrobial activity against Acinetobacter baumannii ATCC 19606 incubated for 16 to 20 hrs in 12.5 % muller hinton medium by broth microdilution method; assay type: functional; conditions: time 16-20 hrs

Compound | Activity [1] | Activity [2] | Activity [3] | Activity [4] | Activity [5] | Activity [6] | Activity [7] | Activity [8] | MIC [9] [µg/mL] | MIC [13] [µg/mL] | MIC [16] [µg/mL] | MIC [18] [µg/mL] | MIC [19] [µg/mL] | MIC [20] [µg/mL] | MHC [24] [µg/mL] | MIC [27] [µg/mL] | further results
CC[C@H]1OC(=O)[C@H](C)[C@@H](O[C@H]2C[C@@](C)(OC)[C@@H](O)[C@H](C)O2)[C@H](C)[C@@H](O[C@@H]2O[C@H](C)C[C@H](N(C)C)[C@H]2O)[C@](C)(O)C[C@@H](C)CN(C)[C@H](C)[C@@H](O)[C@]1(C)O | Active; Few Membrane Perturbation Observed | Active | Active | Active | Active | Active | Active; Few Membrane Perturbation Observed | Active |  |  |  |  |  |  |  |  | 
CC(C)C[C@H](NC(=O)CN(CC(C)C)C(=O)[C@H](CC(C)C)NC(=O)CN(CCCCN)C(=O)[C@H](CC(C)C)NC(=O)CN(CC(C)C)C(=O)[C@H](CCCCN)NC(=O)CN(CC(C)C)C(=O)[C@H](CC(C)C)NC(=O)CN(CCCCN)C(=O)[C@@H](N)CCCCN)C(N)=O (H-K[Nlys]L[Nleu]K[Nleu]L[Nlys]L[Nleu]L-NH2) |  |  |  |  |  |  |  |  | > 32 | > 64 | 2 (≈ 1.51 µM) | > 32 | > 32 | > 64 |  |  | MIC [10]: > 32 µg/mL; MIC [11]: > 64 µg/mL; MIC [12]: > 32 µg/mL; MIC [14]: > 64 µg/mL; MIC [15]: 64 µg/mL (≈ 48.4 µM); MIC [17]: > 32 µg/mL; MIC [21]: > 32 µg/mL; MIC [22]: 64 µg/mL (≈ 48.4 µM)
CC[C@@H](C)[C@@H](NC(=O)[C@@H](CCCNC(=N)N)NC(=O)[C@H](CCCNC(=N)N)NC(=O)[C@@H]1CCCN1C(=O)[C@@H]1CCCN1C(=O)[C@H](CCCNC(=N)N)NC(=O)[C@@H]1CCCN1C(=O)[C@H](CCCNC(=N)N)NC(=O)[C@@H]1CCCN1C(=O)[C@H](CC(C)C)NC(=O)[C@H](Cc1ccc(O)cc1)NC(=O)[C@@H]1CCCN1C(=O)[C@@H]1CCCN1C(=O)[C@H](CCCCN)NC(=O)[C@H](CC(=O)O)NC(=O)[C@@H](N)C(C)C)C(=O)N[C@H](Cc1ccc(O)cc1)C(=O)N[C@H](CC(N)=O)C(=O)N[C@H](CCCNC(=N)N)C(N)=O (H-VDKPPYLPRPRPPR[dR][dI][dY][dN][dR]-NH2) | Active; Few Membrane Perturbation Observed | Active | Active | Active | Active | Active | Active; Few Membrane Perturbation Observed | Active |  | > 64 |  | > 64 | > 64 | > 64 | > 1000 |  | Activity [23]: Active
CCC(C)C(NC(=O)C(CCCNC(=N)N)NC(=O)C(CCCNC(=N)N)NC(=O)[C@@H]1CCCN1C(=O)[C@@H]1CCCN1C(=O)[C@H](CCCNC(=N)N)NC(=O)[C@@H]1CCCN1C(=O)[C@H](CCCNC(=N)N)NC(=O)[C@@H]1CCCN1C(=O)[C@H](CC(C)C)NC(=O)[C@H](Cc1ccc(O)cc1)NC(=O)[C@@H]1CCCN1C(=O)[C@@H]1CCCN1C(=O)[C@H](CCCCN)NC(=O)[C@H](CC(=O)O)NC(=O)[C@@H](N)C(C)C)C(=O)NC(Cc1ccc(O)cc1)C(=O)NC(CC(N)=O)C(=O)NC(CCCNC(=N)N)C(N)=O (stereo partly drawn) (H-VDKPPYLPRPRPP[ξR][ξR][ξI][ξY][ξN][ξR]-NH2) |  |  |  |  |  |  |  |  | 4 (≈ 1.67 µM) |  | 1 (≈ 0.418 µM) |  | > 64 |  | > 1000 |  | MIC [25]: > 16 µg/mL; MIC [26]: 8 µg/mL (≈ 3.35 µM)
CCC(C)C(NC(=O)C(CCCNC(=N)N)NC(=O)C(CCCNC(=N)N)NC(=O)C1CCCN1C(=O)[C@@H]1CCCN1C(=O)[C@H](CCCNC(=N)N)NC(=O)[C@@H]1CCCN1C(=O)[C@H](CCCNC(=N)N)NC(=O)[C@@H]1CCCN1C(=O)[C@H](CC(C)C)NC(=O)[C@H](Cc1ccc(O)cc1)NC(=O)[C@@H]1CCCN1C(=O)[C@@H]1CCCN1C(=O)[C@H](CCCCN)NC(=O)[C@H](CC(=O)O)NC(=O)[C@@H](N)C(C)C)C(=O)NC(Cc1ccc(O)cc1)C(=O)NC(CC(N)=O)C(=O)NC(CCCNC(=N)N)C(N)=O (stereo partly drawn) (H-VDKPPYLPRPRP[ξP][ξR][ξR][ξI][ξY][ξN][ξR]-NH2) |  |  |  |  |  |  |  |  | 4 (≈ 1.67 µM) |  | 1 (≈ 0.418 µM) |  | > 64 |  | > 1000 |  | MIC [25]: > 16 µg/mL; MIC [26]: 8 µg/mL (≈ 3.35 µM)
CC(C)C[C@H](NC(=O)[C@H](CC(C)C)NC(=O)[C@H](CC(C)C)NC(=O)[C@@H](CCCCN)NC(=O)[C@H](CC(C)C)NC(=O)[C@H](CC(C)C)NC(=O)[C@@H](CCCCN)NC(=O)[C@H](CC(C)C)NC(=O)[C@H](CC(C)C)NC(=O)[C@@H](CCCCN)NC(=O)[C@H](N)CCCCN)C(N)=O (H-[dK][dK]LL[dK]LL[dK]LLL-NH2) | Active; Few Membrane Perturbation Observed | Active | Active | Active | Active | Active | Active; Few Membrane Perturbation Observed | Active | 8 (≈ 6.05 µM) |  |  |  |  |  | 1000 | 8 (≈ 6.05 µM) | MIC [10]: 2.4 µg/mL (≈ 1.82 µM)
CC[C@H](C)[C@H](NC(=O)[C@H](CCCNC(=N)N)NC(=O)[C@H](CCCNC(=N)N)NC(=O)[C@@H]1CCCN1C(=O)[C@@H]1CCCN1C(=O)[C@H](CCCNC(=N)N)NC(=O)[C@@H]1CCCN1C(=O)[C@H](CCCNC(=N)N)NC(=O)[C@@H]1CCCN1C(=O)[C@H](CC(C)C)NC(=O)[C@H](Cc1ccc(O)cc1)NC(=O)[C@@H]1CCCN1C(=O)[C@@H]1CCCN1C(=O)C(CCCCN)NC(=O)C(CC(=O)O)NC(=O)C(N)C(C)C)C(=O)N[C@@H](Cc1ccc(O)cc1)C(=O)N[C@@H](CC(N)=O)C(=O)N[C@@H](CCCNC(=N)N)C(N)=O (stereo partly drawn) (H-[ξV][ξD][ξK]PPYLPRPRPPRRIYNR-NH2) |  |  |  |  |  |  |  |  |  |  | 2 (≈ 0.837 µM) |  | > 64 |  | > 1000 | > 64 | MIC [28]: 8 µg/mL (≈ 3.35 µM)
H-VDKPPYLPRPRPPRRIYNR-NH2 [ONCOCIN] | Active; Few Membrane Perturbation Observed | Active | Active | Active | Active | Active | Active; Few Membrane Perturbation Observed | Active |  | > 64 |  | > 64 | > 64 | > 64 | > 1000 | > 64 | Activity [23]: Active; MIC [11]: > 64 µg/mL; MIC [17]: > 64 µg/mL; MIC [21]: > 64 µg/mL

Reference: ChEMBL document CHEMBL6083262, “Stereorandomized Oncocins with Preserved Ribosome Binding and Antibacterial Activity” (J Med Chem, 2024)
